According to patent US20210113568A1, “PREVENTIVE AND/OR THERAPEUTIC AGENT FOR AUTOIMMUNE DISEASE COMPRISING COMPOUND HAVING Btk INHIBITORY ACTIVITY AS ACTIVE INGREDIENT” (ONO PHARMACEUTICAL CO., LTD., priority 2018, published 2021):

tested on: human neutrophils; assay: Measurement of activation of human neutrophils (NETs formation, SYTOX Green fluorescence, immune complex stimulation); type: cell-based; details: Neutrophil, immobilized HSA/anti-HSA immune complex, 1 hour preincubation, 4 hours at 37° C.
Protocol: Human serum albumin (HSA) (Sigma) was immobilized on a 96-well plate and anti-HSA antibody (Sigma) was added to form an immune complex. Blocking was performed with 10% fetal bovine serum (FBS), and the plate was then used for neutrophil activation.
Various compounds having a Btk inhibitory activity were used as the test compounds. The test compound was dissolved in DMSO and dilution with RPMI 1640 culture medium (10% FBS, contained 1% penicillin/streptomycin) was then performed to prepare a test compound solution with a concentration 11-times that of the final concentration. 180 μL of a culture medium-diluted human neutrophil suspension was added to 20 μL of the 11×-concentration test compound solution, or the medium (1.1% DMSO), and incubation was performed for 1 hour at room temperature.
20 μL of a 50 μM SYTOX Green solution (Thermo Fisher Scientific Inc.) was then added to the plate bearing the immobilized immune complex; 180 μL (1×10^5 cells/well) of the test compound-treated neutrophil suspension was added; and incubation was carried out for 4 hours at 37° C. and 5% CO2. The relative fluorescence units of the SYTOX Green bound to NETs from the neutrophils were measured using a microplate reader (Molecular Devices) and conditions of an excitation wavelength of 475 nm and a fluorescence wavelength of 523 nm. The percent inhibition (%) for the test compound was calculated using the formula given below. The percent inhibition (%) was graphically plotted using Prism (ver. 5.04, GraphPad Software) and the IC50 value was determined.
A: relative fluorescence units when the test compound was added B: relative fluorescence units at the time of stimulation C: relative fluorescence units without stimulation

| Structure (SMILES) | IC50 [nM] |
| --- | --- |
| Cc1c(-c2c(F)cc(C(N)=O)c3[nH]c4c(c23)CC[C@H](C(C)(C)O)C4)cccc1-n1c(=O)c2cccc(F)c2n(C)c1=O [BMS-986142] | 44 |
| CC#CC(=O)N1CCC[C@H]1c1nc(-c2ccc(C(=O)Nc3ccccn3)cc2)c2c(N)nccn12 [acalabrutinib] | 84 |
| C[C@H]1CN(C2COC2)CCN1c1ccc(Nc2cc(-c3ccnc(N4CCn5c(cc6c5CC(C)(C)C6)C4=O)c3CO)cn(C)c2=O)nc1 [fenebrutinib] | 62 |
| C=CC(=O)N1CCC[C@@H](n2nc(-c3ccc(Oc4ccccc4)cc3)c3c(N)ncnc32)C1 [ibrutinib] | 3.6 |
| CC#CC(=O)N1CC[C@@H](n2c(=O)n(-c3ccc(Oc4ccccc4)cc3)c3c(N)ncnc32)C1 [tirabrutinib, 6-amino-9-[(3R)-1-(buta-2-ynoyl)pyrrolidin-3-yl]-7-(4-phenoxyphenyl)-7,9-dihydro-8H-purin-8-one] | 22 |

same assay, conditions: Neutrophil, immobilized HSA/anti-HSA immune complex, 1 hour preincubation, 4 hours at 37° C., unit given as M

| Structure (SMILES) | IC50 [nM] |
| --- | --- |
| C=CC(=O)N1CCC(CNc2ncnc(N)c2-c2ccc(Oc3ccccc3)cc2)CC1 [evobrutinib] | 57 |
